Reference: ChEMBL document CHEMBL4118194, “Molecular modeling, synthesis, antibacterial and cytotoxicity evaluation of sulfonamide derivatives of benzimidazole, indazole, benzothiazole and thiazole” (Bioorg Med Chem, 2018)
Converted amounts (≈) assume the structure as drawn.

Tests used:
Escherichia coli [1] = assay: Antibacterial activity against wild type Escherichia coli NCIM 2065 after 24 hrs by broth micro dilution method; format: functional; details: NCIM 2065, 24 h
Escherichia coli [2] = assay: Synergistic antibacterial activity against wild type Escherichia coli NCIM 2065 at 0.5 times MIC after 24 hrs in presence of 0.0976 to […] chloramphenicol by broth micro dilution method; format: functional; details: NCIM 2065, 24 h
Escherichia coli [3] = assay: Synergistic antibacterial activity against wild type Escherichia coli NCIM 2065 at 0.5 times MIC after 24 hrs in presence of 0.0976 to […] sulfamethoxazole by broth micro dilution method; format: functional; details: NCIM 2065, 24 h
Bacillus cereus [4] = assay: Antibacterial activity against Bacillus cereus NCIM 2156 after 24 hrs by broth micro dilution method; format: functional; details: NCIM 2156, 24 h
Escherichia coli [5] = assay: Antibacterial activity against Escherichia coli U-621 mutant after 24 hrs by broth micro dilution method; format: functional; details: U-621, 24 h
Staphylococcus aureus [6] = assay: Antibacterial activity against Staphylococcus aureus NCIM 2079 after 24 hrs by broth micro dilution method; format: functional; details: NCIM 2079, 24 h
Escherichia coli [7] = assay: Potency index, ratio of sulfamethoxazole MIC to compound MIC for Escherichia coli U-621 mutant; format: functional
Escherichia coli [8] = assay: Synergistic antibacterial activity against wild type Escherichia coli NCIM 2065 assessed as fractional inhibitory concentration at 0.5 times MIC after 24 hrs in presence of 0.0976 to […] chloramphenicol by broth micro dilution method; format: functional
Escherichia coli [9] = assay: Synergistic antibacterial activity against wild type Escherichia coli NCIM 2065 assessed as fractional inhibitory concentration at 0.5 times MIC after 24 hrs in presence of 0.0976 to […] sulfamethoxazole by broth micro dilution method; format: functional
Pseudomonas aeruginosa [10] = assay: Antibacterial activity against Pseudomonas aeruginosa NCIM 2036 after 24 hrs by broth micro dilution method; format: functional; details: NCIM 2036, 24 h
Pseudomonas aeruginosa [11] = assay: Synergistic antibacterial activity against Pseudomonas aeruginosa NCIM 2036 at 0.37 to 50 ug/ml after 24 hrs in presence of […] sulfamethoxazole by broth micro dilution method; format: functional; details: NCIM 2036, 24 h
Vero = assay: Cytotoxicity against African green monkey Vero cells assessed as decrease in cell viability after 3 days by MTT assay; format: cell-based; details: Chlorocebus sabaeus, 72 h
CCRF-CEM = assay: Cytotoxicity against human CEM cells assessed as decrease in cell viability after 5 days by MTT assay; format: cell-based; details: 120 h
Pseudomonas aeruginosa [12] = assay: Synergistic antibacterial activity against Pseudomonas aeruginosa NCIM 2036 at 0.5 times MIC after 24 hrs in presence of 0.0976 to […] chloramphenicol by broth micro dilution method; format: functional; details: NCIM 2036, 24 h
Pseudomonas aeruginosa [13] = assay: Synergistic antibacterial activity against Pseudomonas aeruginosa NCIM 2036 assessed as fractional inhibitory concentration at 0.37 to 50 ug/ml after 24 hrs in presence of […] sulfamethoxazole by broth micro dilution method; format: functional
Pseudomonas aeruginosa [14] = assay: Synergistic antibacterial activity against Pseudomonas aeruginosa NCIM 2036 at 0.5 times MIC after 24 hrs in presence of 0.0976 to […] chloramphenicol by broth micro dilution method relative to compound alone; format: functional
Pseudomonas aeruginosa [15] = assay: Synergistic antibacterial activity against Pseudomonas aeruginosa NCIM 2036 assessed as fractional inhibitory concentration at 0.5 times MIC after 24 hrs in presence of 0.0976 to […] chloramphenicol by broth micro dilution method; format: functional
Escherichia coli [16] = assay: Potency index, ratio of […] MIC to compound MIC for Escherichia coli U-621 mutant; format: functional
PBMC = assay: Cytotoxicity against human PBMC assessed as decrease in cell viability after 5 days by MTT assay; format: cell-based; details: 120 h
Pseudomonas aeruginosa [17] = assay: Synergistic antibacterial activity against Pseudomonas aeruginosa NCIM 2036 assessed as fractional inhibitory concentration at 0.5 times MIC after 24 hrs in presence of 0.0976 to […] sulfamethoxazole by broth micro dilution method; format: functional
Escherichia coli [18] = assay: Potency index, ratio of chloramphenicol MIC to compound MIC for wild type Escherichia coli NCIM 2065; format: functional
Pseudomonas aeruginosa [19] = assay: Synergistic antibacterial activity against Pseudomonas aeruginosa NCIM 2036 at 0.5 times MIC after 24 hrs in presence of 0.0976 to […] sulfamethoxazole by broth micro dilution method; format: functional; details: NCIM 2036, 24 h
Pseudomonas aeruginosa [20] = assay: Potency index, ratio of chloramphenicol MIC to compound MIC for Pseudomonas aeruginosa NCIM 2036; format: functional
Staphylococcus aureus [21] = assay: Synergistic antibacterial activity against Staphylococcus aureus NCIM 2079 at 0.37 to 50 ug/ml after 24 hrs in presence of […] chloramphenicol by broth micro dilution method; format: functional; details: NCIM 2079, 24 h
Bacillus cereus [22] = assay: Synergistic antibacterial activity against Bacillus cereus NCIM 2156 at 0.37 to 50 ug/ml after 24 hrs in presence of […] sulfamethoxazole by broth micro dilution method; format: functional; details: NCIM 2156, 24 h
Bacillus cereus [23] = assay: Synergistic antibacterial activity against Bacillus cereus NCIM 2156 at 0.37 to 50 ug/ml after 24 hrs in presence of […] chloramphenicol by broth micro dilution method; format: functional; details: NCIM 2156, 24 h
Escherichia coli [24] = assay: Synergistic antibacterial activity against wild type Escherichia coli NCIM 2065 at 0.37 to 50 ug/ml after 24 hrs in presence of […] sulfamethoxazole by broth micro dilution method; format: functional; details: NCIM 2065, 24 h
Pseudomonas aeruginosa [25] = assay: Synergistic antibacterial activity against Pseudomonas aeruginosa NCIM 2036 assessed as fractional inhibitory concentration at 0.37 to 50 ug/ml after 24 hrs in presence of […] chloramphenicol by broth micro dilution method; format: functional
Bacillus cereus [26] = assay: Synergistic antibacterial activity against Bacillus cereus NCIM 2156 assessed as fractional inhibitory concentration at 0.37 to 50 ug/ml after 24 hrs in presence of […] sulfamethoxazole by broth micro dilution method; format: functional
Staphylococcus aureus [27] = assay: Synergistic antibacterial activity against Staphylococcus aureus NCIM 2079 at 0.37 to 50 ug/ml after 24 hrs in presence of […] sulfamethoxazole by broth micro dilution method; format: functional; details: NCIM 2079, 24 h
Escherichia coli [28] = assay: Synergistic antibacterial activity against wild type Escherichia coli NCIM 2065 assessed as fractional inhibitory concentration at 0.37 to 50 ug/ml after 24 hrs in presence of […] sulfamethoxazole by broth micro dilution method; format: functional
Staphylococcus aureus [29] = assay: Synergistic antibacterial activity against Staphylococcus aureus NCIM 2079 assessed as fractional inhibitory concentration at 0.37 to 50 ug/ml after 24 hrs in presence of […] sulfamethoxazole by broth micro dilution method; format: functional
Pseudomonas aeruginosa [30] = assay: Synergistic antibacterial activity against Pseudomonas aeruginosa NCIM 2036 at 0.37 to 50 ug/ml after 24 hrs in presence of […] chloramphenicol by broth micro dilution method; format: functional; details: NCIM 2036, 24 h
Staphylococcus aureus [31] = assay: Synergistic antibacterial activity against Staphylococcus aureus NCIM 2079 assessed as fractional inhibitory concentration at 0.37 to 50 ug/ml after 24 hrs in presence of […] chloramphenicol by broth micro dilution method; format: functional
Escherichia coli [32] = assay: Potency index, ratio of sulfamethoxazole MIC to compound MIC for wild type Escherichia coli NCIM 2065; format: functional
Bacillus cereus [33] = assay: Synergistic antibacterial activity against Bacillus cereus NCIM 2156 assessed as fractional inhibitory concentration at 0.37 to 50 ug/ml after 24 hrs in presence of […] chloramphenicol by broth micro dilution method; format: functional

| Compound | MIC (Escherichia coli [1]) [µg/mL] | MIC (Escherichia coli [2]) [µg/mL] | MIC (Escherichia coli [3]) [µg/mL] | MIC (Bacillus cereus [4]) [µg/mL] | MIC (Escherichia coli [5]) [µg/mL] | MIC (Staphylococcus aureus [6]) [µg/mL] | FIC (Escherichia coli [8]) | FIC (Escherichia coli [9]) | MIC (Pseudomonas aeruginosa [10]) [µg/mL] | MIC (Pseudomonas aeruginosa [11]) [µg/mL] | IC50 (Vero) [µM] | IC50 (CCRF-CEM) [µM] | FIC (Pseudomonas aeruginosa [13]) | IC50 (PBMC) [µM] | further results |
| --- | --- | --- | --- | --- | --- | --- | --- | --- | --- | --- | --- | --- | --- | --- | --- |
| O=S(=O)(Nc1nccs1)c1ccc(Cl)cc1 | 3.1 (≈ 11.3 µM) | 0.195 | 0.195 | 3.1 (≈ 11.3 µM) | 25 (≈ 91 µM) | 6.2 (≈ 22.6 µM) | 0.06 | 0.06 | 6.2 (≈ 22.6 µM) | 1.5 | 6.2 | > 100 | 0.24 | > 100 | Ratio (Escherichia coli [7]): 4; MIC (Pseudomonas aeruginosa [12]): 0.195 µg/mL; fold change (FC) (Pseudomonas aeruginosa [14]): 32; FIC (Pseudomonas aeruginosa [15]): 0.03; Ratio (Escherichia coli [16]): 4 |
| C[C@@H]1C[C@@H]([C@H](O)CC2CC(=O)NC(=O)C2)C(=O)[C@@H](C)C1 [CYCLOHEXIMIDE] | 12.5 (≈ 44.4 µM) |  |  | 12.5 (≈ 44.4 µM) | 50 (≈ 178 µM) | 12.5 (≈ 44.4 µM) |  |  | 12.5 (≈ 44.4 µM) |  | 0.2 | 0.2 |  | 0.9 |  |
| O=[N+]([O-])c1ccc(S(=O)(=O)n2ncc3cc([N+](=O)[O-])ccc32)cc1 | 3.1 (≈ 8.9 µM) | 0.195 | 0.0976 | 6.2 (≈ 17.8 µM) | 12.5 (≈ 35.9 µM) | 6.2 (≈ 17.8 µM) | 0.06 | 0.03 | 3.1 (≈ 8.9 µM) |  |  |  |  |  | Ratio (Escherichia coli [7]): 4; FIC (Pseudomonas aeruginosa [17]): 0.06; Ratio (Escherichia coli [18]): 2; MIC (Pseudomonas aeruginosa [19]): 0.195 µg/mL; MIC (Pseudomonas aeruginosa [12]): 0.195 µg/mL; Ratio (Pseudomonas aeruginosa [20]): 2; FIC (Pseudomonas aeruginosa [15]): 0.06; Ratio (Escherichia coli [16]): 4 |
| O=C(N[C@H](CO)[C@H](O)c1ccc([N+](=O)[O-])cc1)C(Cl)Cl [CHLORAMPHENICOL] | 6.2 (≈ 19.2 µM) |  |  | 6.2 (≈ 19.2 µM) | 50 (≈ 155 µM) | 6.2 (≈ 19.2 µM) |  |  | 6.2 (≈ 19.2 µM) |  |  |  |  |  |  |
| Cc1ccc(S(=O)(=O)n2cnc3ccccc32)cc1 | 6.2 (≈ 22.8 µM) | 0.781 |  | 50 (≈ 184 µM) | 50 (≈ 184 µM) | 25 (≈ 91.8 µM) | 0.12 |  | 25 (≈ 91.8 µM) | 6.2 | > 100 | ≥ 100 | 0.24 | > 100 | MIC (Staphylococcus aureus [21]): 12.5 µg/mL; MIC (Bacillus cereus [22]): 6.2 µg/mL; MIC (Bacillus cereus [23]): 12.5 µg/mL; MIC (Escherichia coli [24]): 3.1 µg/mL; FIC (Pseudomonas aeruginosa [25]): 0.24; FIC (Bacillus cereus [26]): 0.24; MIC (Staphylococcus aureus [27]): 6.2 µg/mL; FIC (Escherichia coli [28]): 0.5; FIC (Staphylococcus aureus [29]): 0.49; MIC (Pseudomonas aeruginosa [30]): 6.2 µg/mL; FIC (Staphylococcus aureus [31]): 0.5; Ratio (Escherichia coli [32]): 2; FIC (Bacillus cereus [33]): 0.25 |
| O=S(=O)(c1ccc(Cl)cc1)n1cnc2ccccc21 | 3.1 (≈ 10.6 µM) | 0.391 | 0.0976 | 25 (≈ 85.4 µM) | 50 (≈ 171 µM) | 12.5 (≈ 42.7 µM) | 0.12 | 0.03 | 12.5 (≈ 42.7 µM) | 3.1 | > 100 | > 61.7 | 0.24 | > 100 | MIC (Staphylococcus aureus [21]): 3.1 µg/mL; MIC (Bacillus cereus [22]): 6.2 µg/mL; MIC (Bacillus cereus [23]): 6.2 µg/mL; FIC (Pseudomonas aeruginosa [25]): 0.24; Ratio (Escherichia coli [18]): 2; FIC (Bacillus cereus [26]): 0.24; MIC (Staphylococcus aureus [27]): 3.1 µg/mL; FIC (Staphylococcus aureus [29]): 0.12; MIC (Pseudomonas aeruginosa [30]): 3.1 µg/mL; FIC (Staphylococcus aureus [31]): 0.24; FIC (Bacillus cereus [33]): 0.24 |
| Cc1cc(NS(=O)(=O)c2ccc(N)cc2)no1 [SULFAMETHOXAZOLE] | 3.1 (≈ 12.2 µM) |  |  | 6.2 (≈ 24.5 µM) | 25 (≈ 98.7 µM) | 6.2 (≈ 24.5 µM) |  |  | 3.1 (≈ 12.2 µM) |  |  |  |  |  |  |
